# Like-named read-outs stand apart in the source and are kept apart here.
# Key:
# JAK2 = biological target: T1, JAK2 (Homo sapiens, UniProt O60674); test: Kinobeads assay, JAK2 (competition binding in mixed Molt4/Ramos cell lysate, dot blot detection); conditions: read-out: JAK2 Band (Kinobeads assay potency, IC50)
# T1 construct: endogenous in cells; host or cells: Molt4 (ATCC CRL-1582) and Ramos (ATCC CRL-1596), mixed lysate 1:2
# Protocol: (§1) The compounds of the present invention as described in the previous examples were tested in a Kinobeads™ assay as described for ZAP-70 (WO-A 2007/137867). Briefly, test compounds (at various concentrations) and the affinity matrix with the immobilized aminopyrido-pyrimidine ligand 24 were added to cell lysate aliquots and allowed to bind to the proteins in 10 the lysate sample. After the incubation time the beads with captured proteins were separated from the lysate. Bound proteins were then eluted and the presence of TYK2 and JAK2 was detected and quantified using specific antibodies in a dot blot procedure and the Odyssey infrared detection system. Dose response curves for individual kinases were generated and IC50 values calculated. Kinobeads™ assays have been previously described (WO-A 2007/137867; WO-A 2006/134056).
# (§2) The affinity matrix was washed two times with 15 mL of 1×DP buffer containing 0.2% NP40 (IGEPAL® CA-630, Sigma, #13021) and then resuspended in 1×DP buffer containing 0.2% NP40 (3% beads slurry). 5×DP buffer: 250 mM Tris-HCl pH 7.4, 25% Glycerol, 7.5 mM MgCl2, 750 mM NaCl, 5 mM Na3VO4; filter the 5×DP buffer through a 0.22 μm filter and store in aliquots at −80° C. The 5×DP buffer is diluted with H2O to 1×DP buffer containing 1 mM DTT and 25 mM NaF.
# (§3) Stock solutions of test compounds were prepared in DMSO. In a 96 well plate 30 μL solution of diluted test compounds at 5 mM in DMSO were prepared. Starting with this solution a 1:3 dilution series (9 steps) was prepared. For control experiments (no test compound) a buffer containing 2% DMSO was used.
# (§4) Molt4 cells (ATCC catalogue number CRL-1582) and Ramos cells (ATCC catalogue number CRL-1596) were grown in 1 L Spinner flasks (Integra Biosciences, #182101) in suspension in RPMI 1640 medium (Invitrogen, #21875-034) supplemented with 10% Fetal Bovine Serum (Invitrogen) at a density between 0.15×10^6 and 1.2×10^6 cells/mL. Cells were harvested by centrifugation, washed once with 1×PBS buffer (Invitrogen, #14190-094) and cell pellets were frozen in liquid nitrogen and subsequently stored at −80° C. Cells were homogenized in a Potter S homogenizer in lysis buffer: 50 mM Tris-HCl, 0.8% NP40, 5% glycerol, 150 mM NaCl, 1.5 mM MgCl2, 25 mM NaF, 1 mM sodium vanadate, 1 mM DTT, pH 7.5. One complete EDTA-free tablet (protease inhibitor cocktail, Roche Diagnostics, 1873580) per 25 mL buffer was added. The material was dounced 10 times using a mechanized POTTER S, transferred to 50 mL falcon tubes, incubated for 30 minutes on ice and spun down for 10 minutes at 20,000 g at 4° C. (10,000 rpm in Sorvall SLA600, precooled). The supernatant was transferred to an ultracentrifuge (UZ)-polycarbonate tube (Beckmann, 355654) and spun for 1 hour at 100.000 g at 4° C. (33.500 rpm in Ti50.2, precooled). The supernatant was transferred again to a fresh 50 mL falcon tube, the protein concentration was determined by a Bradford assay (BioRad) and samples containing 50 mg of protein per aliquot were prepared. The samples were immediately used for experiments or frozen in liquid nitrogen and stored frozen at −80° C.
# (§5) Cell lysate (approximately 50 mg protein per plate) was thawed in a water bath at room temperature and then stored on ice. To the thawed cell lysate 1×DP 0.8% NP40 buffer containing protease inhibitors (1 tablet for 25 mL buffer; EDTA-free protease inhibitor cocktail; Roche Diagnostics 1873580) was added in order to reach a final protein concentration of 10 mg/mL total protein. The diluted cell lysate was stored on ice. Mixed Molt4/Ramos lysate was prepared by combining one volume of Molt4 lysate and two volumes of Ramos lysate (ratio 1:2).
# (§6) To a 96 well filter plate (Multiscreen HTS, BV Filter Plates, Millipore #MSBVN1250) were added per well: 100 μL affinity matrix (3% beads slurry), 3 μL of compound solution, and 50 μL of diluted lysate. Plates were sealed and incubated for 3 hours in a cold room on a plate shaker (Heidolph tiramax 1000) at 750 rpm. […]
# TYK2 = biological target: T2, TYK2 (Homo sapiens, UniProt P29597); test: Kinobeads assay, TYK2 (competition binding in mixed Molt4/Ramos cell lysate, dot blot detection)
# T2 construct: endogenous in cells; host or cells: Molt4 (ATCC CRL-1582) and Ramos (ATCC CRL-1596), mixed lysate 1:2
# T2 sequence (P29597 whole entry): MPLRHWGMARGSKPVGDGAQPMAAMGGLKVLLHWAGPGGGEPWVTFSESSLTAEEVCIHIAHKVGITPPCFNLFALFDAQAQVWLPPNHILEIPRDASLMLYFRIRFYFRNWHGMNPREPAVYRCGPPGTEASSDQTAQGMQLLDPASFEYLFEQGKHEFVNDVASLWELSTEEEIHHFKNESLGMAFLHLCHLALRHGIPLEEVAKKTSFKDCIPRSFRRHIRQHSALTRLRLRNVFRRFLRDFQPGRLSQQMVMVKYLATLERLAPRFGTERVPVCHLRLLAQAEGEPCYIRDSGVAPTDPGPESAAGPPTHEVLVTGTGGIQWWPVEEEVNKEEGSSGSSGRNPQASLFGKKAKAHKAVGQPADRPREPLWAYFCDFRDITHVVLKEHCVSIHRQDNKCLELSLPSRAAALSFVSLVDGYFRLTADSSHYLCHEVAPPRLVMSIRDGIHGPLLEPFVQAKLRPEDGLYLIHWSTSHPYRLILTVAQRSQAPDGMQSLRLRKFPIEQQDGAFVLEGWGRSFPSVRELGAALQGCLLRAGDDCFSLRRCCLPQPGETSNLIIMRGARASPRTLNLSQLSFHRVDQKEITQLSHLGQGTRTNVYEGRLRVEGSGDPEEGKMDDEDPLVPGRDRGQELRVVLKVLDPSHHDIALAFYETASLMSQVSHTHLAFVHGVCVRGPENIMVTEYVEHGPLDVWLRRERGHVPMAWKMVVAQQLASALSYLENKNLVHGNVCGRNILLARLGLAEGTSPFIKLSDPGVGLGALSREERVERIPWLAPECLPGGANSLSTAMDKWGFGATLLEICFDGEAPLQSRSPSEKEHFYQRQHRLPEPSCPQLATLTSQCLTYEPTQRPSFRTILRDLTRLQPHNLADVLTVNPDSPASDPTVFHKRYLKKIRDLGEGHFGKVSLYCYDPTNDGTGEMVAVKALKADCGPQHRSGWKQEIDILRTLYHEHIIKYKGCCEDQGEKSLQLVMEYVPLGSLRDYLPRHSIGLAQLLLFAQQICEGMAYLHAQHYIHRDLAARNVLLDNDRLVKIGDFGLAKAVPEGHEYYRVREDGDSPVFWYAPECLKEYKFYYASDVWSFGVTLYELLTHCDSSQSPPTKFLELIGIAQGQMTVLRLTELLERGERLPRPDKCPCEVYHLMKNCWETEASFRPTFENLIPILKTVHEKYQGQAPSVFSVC
# Protocol: as §1, §2, §3, §4, §5, §6
# [1] = Kinobeads assay, Molt4/Ramos lysate, read-out: TYK2 Band (Kinobeads assay potency, IC50)
# T1 sequence (O60674 whole entry): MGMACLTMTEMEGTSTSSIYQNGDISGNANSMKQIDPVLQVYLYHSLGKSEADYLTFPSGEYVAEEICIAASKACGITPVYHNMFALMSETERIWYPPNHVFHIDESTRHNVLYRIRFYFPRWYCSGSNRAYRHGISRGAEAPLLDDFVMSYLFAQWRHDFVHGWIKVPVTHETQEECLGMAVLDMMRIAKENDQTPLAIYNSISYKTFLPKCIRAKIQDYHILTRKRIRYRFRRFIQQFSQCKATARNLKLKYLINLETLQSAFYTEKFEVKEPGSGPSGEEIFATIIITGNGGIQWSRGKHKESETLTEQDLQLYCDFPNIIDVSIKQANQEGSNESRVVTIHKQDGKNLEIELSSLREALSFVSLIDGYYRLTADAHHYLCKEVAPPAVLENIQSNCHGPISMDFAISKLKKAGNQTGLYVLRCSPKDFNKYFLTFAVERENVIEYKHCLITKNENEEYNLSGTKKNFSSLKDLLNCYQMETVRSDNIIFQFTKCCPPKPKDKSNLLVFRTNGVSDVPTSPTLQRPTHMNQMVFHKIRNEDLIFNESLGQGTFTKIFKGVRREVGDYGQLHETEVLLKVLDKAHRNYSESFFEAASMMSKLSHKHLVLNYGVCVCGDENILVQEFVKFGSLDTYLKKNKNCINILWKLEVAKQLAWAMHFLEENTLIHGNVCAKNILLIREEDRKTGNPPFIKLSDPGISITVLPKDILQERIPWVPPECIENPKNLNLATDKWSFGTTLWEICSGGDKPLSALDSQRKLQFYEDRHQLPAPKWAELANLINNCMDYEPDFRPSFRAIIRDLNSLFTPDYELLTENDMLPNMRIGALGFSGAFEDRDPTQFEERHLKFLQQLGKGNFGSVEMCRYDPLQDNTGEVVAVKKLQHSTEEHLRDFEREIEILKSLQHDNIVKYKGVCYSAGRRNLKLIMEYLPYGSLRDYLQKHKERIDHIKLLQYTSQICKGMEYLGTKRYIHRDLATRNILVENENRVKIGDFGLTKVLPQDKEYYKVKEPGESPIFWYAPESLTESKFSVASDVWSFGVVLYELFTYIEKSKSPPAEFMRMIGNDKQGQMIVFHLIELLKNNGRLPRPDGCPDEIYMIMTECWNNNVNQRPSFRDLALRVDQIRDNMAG
IC50 (JAK2) [nM],IC50 (TYK2; [1]) [nM],IC50 (TYK2; read-out: TYK2 IC50) [nM],Compound
100 to 1000,10 to 100,,Cc1cnc(Nc2cnn(CC(=O)NC3CC3)c2)nc1NCc1cc(F)ccc1F [Example I-346]
> 10000,100 to 1000,,Cn1cc(Nc2nccc(NCc3c(F)cc(F)cc3F)n2)cn1 [Example I-310]
1000 to 10000,100 to 1000,,Fc1cccc(F)c1CNc1nc(Nc2cnn(C(F)F)c2)ncc1Cl [Example I-224]
1000 to 10000,100 to 1000,,Cc1cnc(Nc2cnn(CC(=O)N(C)C)c2)nc1NCc1cc(F)cc(C(F)(F)F)c1 [Example I-330]
1000 to 10000,10 to 100,< 100,"C[C@@H](CO)NC(=O)Cn1cc(Nc2nccc(NCc3c(Cl)cccc3Cl)n2)cn1 [Example I-3, (S)-2-(4-((4-((2,6-dichlorobenzyl)amino)pyrimidin-2-yl)amino)-1H-pyrazol-1-yl)-N-(1-hydroxypropan-2-yl)acetamide]"
100 to 1000,10 to 100,,[2H]C([2H])(O)C([2H])([2H])n1cc(Nc2ncc(Cl)c(NCc3c(F)cccc3F)n2)cn1 [Example I-234]
1000 to 10000,10 to 100,,NC(=O)Cn1cc(Nc2ncc(F)c(NCc3c(F)cccc3F)n2)cn1 [Example I-380]
100 to 1000,10 to 100,,CS(=O)(=O)c1ccc(F)c(CNc2nc(Nc3cn[nH]c3)ncc2Cl)c1 [Example I-98]
100 to 1000,100 to 1000,,CN(C)C(=O)Cn1cc(Nc2ncc(Cl)c(NCc3cc(Br)cc(F)c3F)n2)cn1 [Example I-263]
100 to 1000,≤ 10,,OCCn1cc(Nc2ncc(F)c(NCc3c(F)ccc(F)c3F)n2)cn1 [Example I-202]
100 to 1000,10 to 100,,Cc1cnc(Nc2cnn(CC(=O)NC3CC3)c2)nc1NCc1cc(F)cc(F)c1F [Example I-101]
100 to 1000,10 to 100,,OCCn1cc(Nc2ncc(Cl)c(NCc3c(F)cc(F)cc3F)n2)cn1 [Example I-15]
1000 to 10000,10 to 100,,Cn1cc(Nc2nccc(NCc3c(F)cccc3Cl)n2)cn1 [Example I-55]
1000 to 10000,10 to 100,,CS(=O)(=O)c1ccc(F)c(CNc2nc(Nc3cnn(CCO)c3)ncc2F)c1 [Example I-115]
100 to 1000,100 to 1000,,NC(=O)Cn1cc(Nc2ncc(Cl)c(NCc3ccccc3)n2)cn1 [Example I-206]
1000 to 10000,10 to 100,,CC(C)(CO)NC(=O)Cn1cc(Nc2nccc(NCc3c(F)cc(F)cc3F)n2)cn1 [Example I-460]
100 to 1000,10 to 100,,N#CC1CCCN1C(=O)Cn1cc(Nc2ncc(Cl)c(NCc3ccccc3)n2)cn1 (stereo not shown) [Example I-237]
1000 to 10000,10 to 100,,Cn1cc(Nc2nccc(NCc3c(F)cncc3F)n2)cn1 [Example I-148]
1000 to 10000,10 to 100,,OCCn1cc(Nc2ncc(F)c(NCc3ccccc3F)n2)cn1 [Example I-205]
1000 to 10000,100 to 1000,,CS(=O)(=O)Cc1cccc(CNc2nc(Nc3cnn(CC(N)=O)c3)ncc2Cl)c1 [Example I-443]
1000 to 10000,10 to 100,,C[C@@H]1COCCN1C(=O)Cn1cc(Nc2ncc(F)c(NCc3c(F)cc(F)cc3F)n2)cn1 [Example I-40]
1000 to 10000,100 to 1000,,CC(C)(C)OC(=O)N1CC2CCC1CN2C(=O)Cn1cc(Nc2ncc(Cl)c(NCc3ccccc3)n2)cn1 (stereo not shown) [Example I-197]
1000 to 10000,10 to 100,,O=C(Cn1cc(Nc2ncc(Cl)c(NCc3ccccc3)n2)cn1)N1CCOCC1 [Example I-160]

IC50 (JAK2) [nM],IC50 (TYK2; [1]) [nM],IC50 (TYK2; read-out: TYK2 IC50) [nM],Compound
1000 to 10000,10 to 100,,CCOC(=O)Cn1cc(Nc2ncc(F)c(NCc3c(F)ccc(OC)c3F)n2)cn1 [Example I-53]
> 10000,100 to 1000,,Fc1cc(F)c(CNc2nc(Nc3cnn(CC(F)F)c3)ncc2F)c(F)c1 [Example I-464]
> 10000,10 to 100,,O=C(Cn1cc(Nc2nccc(NCc3c(F)cc(F)cc3F)n2)cn1)NCC(F)(F)F [Example I-86]
> 10000,10 to 100,,CCC(CC)NC(=O)Cn1cc(Nc2ncc(F)c(NCc3c(F)cc(F)cc3F)n2)cn1 [Example I-58]
100 to 1000,100 to 1000,,CC(C)(O)Cn1cc(Nc2ncc(Cl)c(NCc3cc(F)ccc3F)n2)cn1 [Example I-292]
> 10000,10 to 100,,CC(C)NC(=O)Cn1cc(Nc2ncc(F)c(NCc3cccc(OC(F)F)c3)n2)cn1 [Example I-45]
1000 to 10000,10 to 100,,CS(=O)(=O)NCc1cccc(CNc2nc(Nc3cnn(CC(=O)N4CCOCC4)c3)ncc2Cl)c1 [Example I-396]
1000 to 10000,≤ 10,,O=C(Cn1cc(Nc2ncc(F)c(NCc3c(F)cc(F)cc3F)n2)cn1)N1CCOCC1 [Example I-26]
1000 to 10000,100 to 1000,,Cc1cnc(Nc2cnn(C)c2)nc1NCc1cccc(CNS(C)(=O)=O)c1 [Example I-402]
1000 to 10000,10 to 100,,COc1ccc(F)c(CNc2ccnc(Nc3cnn(CC(=O)NCC(F)F)c3)n2)c1F [Example I-127]
> 10000,10 to 100,,NS(=O)(=O)c1ccc(CNc2nc(Nc3cnn(CC(=O)N4CCCCC4)c3)ncc2F)cc1 [Example I-30]
1000 to 10000,1000 to 10000,,CS(=O)(=O)c1ccccc1CNc1nc(Nc2cnn(CC(F)F)c2)ncc1F [Example I-477]
1000 to 10000,100 to 1000,,CN(C)CCNC(=O)Cn1cc(Nc2ncc(Cl)c(NCc3cccc(OCC#N)c3)n2)cn1 [Example I-367]
100 to 1000,10 to 100,,Cn1cc(Nc2ncc(F)c(NCc3c(Cl)ccc(Cl)c3F)n2)cn1 [Example I-457]
1000 to 10000,≤ 10,,C[C@@H](CO)NC(=O)Cn1cc(Nc2ncc(F)c(NCc3c(F)cc(F)cc3F)n2)cn1 [Example I-42]
100 to 1000,100 to 1000,,CNC(=O)Cn1cc(Nc2ncc(Cl)c(NCc3cc(F)cc(F)c3)n2)cn1 [Example I-190]
1000 to 10000,10 to 100,,"CC(C)NC(=O)Cn1cc(Nc2nccc(NCc3c(F)cc(C#N)cc3F)n2)cn1 [Example I-1, 2-(4-((4-((4-cyano-2,6-difluorobenzyl)amino)pyrimidin-2-yl)amino)-1H-pyrazol-1-yl)-N-isopropylacetamide]"
1000 to 10000,10 to 100,,COc1ccc(F)c(CNc2nc(Nc3cnn(CC(=O)O)c3)ncc2Cl)c1F [Example I-295]
1000 to 10000,10 to 100,,O=C(Cn1cc(Nc2ncc(F)c(NCc3c(Cl)cccc3Cl)n2)cn1)N1CCOCC1 [Example I-49]
10 to 100,10 to 100,,Cc1cnc(Nc2cnn(C)c2)nc1NCc1cc(F)cc(F)c1F [Example I-342]
1000 to 10000,10 to 100,,N#Cc1cccc(CNc2nc(Nc3cnn(CCO)c3)ncc2F)c1 [Example I-167]
1000 to 10000,10 to 100,,CC(C)NC(=O)Cn1cc(Nc2nccc(NCc3c(F)cc(F)cc3Cl)n2)cn1 [Example I-94]

# — patent US9296725B2, “Heterocyclyl pyrimidine analogues as TYK2 inhibitors” (Cellzome Limited, priority 2012, dated 2016)
